Measurements from publication PMC11680164 (Viruses, 2024).
“Also recorded” adds a separate entry of the source.

System: SARS-CoV-2 P.1 lineage (gamma variant)
Set-up: species or system K18-hACE2 mice
Conditions: in vivo

COC(=O)N[C@H](C(=O)N1CCC[C@H]1c1nc(-c2ccc(-c3ccc(-c4c[nH]c([C@@H]5CCCN5C(=O)[C@@H](NC(=O)OC)C(C)C)n4)cc3)cc2)c[nH]1)C(C)C [daclatasvir]
mouse survival: increased mouse survival; also recorded: did not significantly affect
LDH levels in bronchoalveolar lavage (BAL) fluid (cell death, lung necrosis) (mouse): decreased levels
SARS-CoV-2-induced increase in IL-6 (mouse): prevented
SARS-CoV-2-induced increase in KC (mouse): prevented
SARS-CoV-2-induced increase in TNF-α (mouse): prevented
cellular infiltration in BAL fluid (mouse): reduced cellular infiltration
double-stranded RNA (dsRNA) levels in the lungs (mouse): lower levels
loss of body weight (mouse): reduced
lung parenchyma affected by alveolar collapse (mouse): ~10%
reduction of SARS-CoV-2 RNA levels in the lungs (mouse): up to 3 log10
reduction of SARS-CoV-2 titers in the lungs (mouse): up to 3 log10
virus-induced score of clinical severity (mouse): reduced
